# Entries after “also recorded” stand apart in the source; their conditions may differ.
# B1: G-CSF: G-CSF (Neupogen, Amgen), most commonly used cytokine for mobilization of HSPCs (protein, chains of the INN, looked up)
# chain: MTPLGPASSLPQSFLLKCLEQVRKIQGDGAALQEKLCATYKLCHPEELVLLGHSLGIPWAPLSSCPSQALQLAGCLSQLHSGLFLYQGLLQALEGISPELGPTLDTLQLDVADFATTIWQQMEELGMAPALQPTQGAMPAFASAFQRRAGGVLVASHLQSFLEVSYRVLRHLAQP
# Experiments:
# P2Y14 receptor [1] = biological target: T1, P2Y14 receptor (Homo sapiens, UniProt Q15391); settings: cited from earlier work
# T1 sequence (Q15391 1-338): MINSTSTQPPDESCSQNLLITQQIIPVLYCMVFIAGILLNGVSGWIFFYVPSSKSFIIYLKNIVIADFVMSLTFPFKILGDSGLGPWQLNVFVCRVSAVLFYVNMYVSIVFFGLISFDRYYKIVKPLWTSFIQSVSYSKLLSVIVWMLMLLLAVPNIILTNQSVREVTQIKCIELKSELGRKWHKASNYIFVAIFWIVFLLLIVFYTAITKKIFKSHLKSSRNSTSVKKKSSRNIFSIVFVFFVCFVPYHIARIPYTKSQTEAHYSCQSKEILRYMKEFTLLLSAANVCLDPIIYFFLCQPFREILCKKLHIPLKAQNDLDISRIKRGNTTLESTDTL
# LSK and SLAM LSK cells = experiment: HSPC mobilization: LSK and SLAM LSK cells quantified by flow cytometry; format: in vivo, mice
# Protocol: (§1) We used 4-6 weeks old C57BL6 and BALB/C in all the experiments. Mice received subcutaneous injections of UDP-glucose (200 mg/kg, Sigma) dissolved in sterile endotoxin-free PBS. G-CSF (Neupogen, Amgen) was administered daily at a dose of 300 μg/kg subcutaneously for 4 consecutive days as previously described (Broxmeyer et al., 2005). […] Antioxidant, N-acetyl-L-cysteine (Sigma-Aldrich), was administered subcutaneously at 100 mg/kg/day. Bone marrow cells were obtained from both femur and tibia and used for flow cytometry and Western blot analysis. All animal studies were conducted after review by the University of Pittsburgh's Institutional Animal Care and Use Committee and in accordance with the University of Pittsburgh's Policy on the Care, Welfare and Treatment of Laboratory Animals.
# Peripheral blood Lin-/Sca-1+/c-Kit+(LSK) and CD150+CD48-(SLAM) LSK cells were phenotyped using the following antibodies: lineage markers PE-Cy7-conjugated anti-CD3, anti-CD4, anti-CD8, anti-CD45R, anti-CD11b, anti-Gr-1, and anti-TER-119 (eBioscience); PE-conjugated anti-Sca-1 (eBioscience); APC-conjugated anti-c-Kit (eBioscience); perCP/Cy5.5-conjugated anti-CD150 (BioLegend); pacific Blue™-conjugated anti-CD48 (BioLegend). […] Mitochondrial superoxide level was measured using MitoSox™ (Invitrogen) within LSK cells, according to manufacturer's instructions.
# as §1, with “Mice” for “We used 4-6 weeks old C57BL6 and BALB/C in all the experiments. Mice”, “(10).” for “(Broxmeyer et al., 2005).”
# RANKL = RANKL expression by Western blot and immunohistochemistry; format: in vivo, mice; settings: NAC 100 mg/kg/day in comparison with UDP-Glc-treated animals
# osteoclasts = experiment: TRAP staining of femur sections; format: in vivo, mice; settings: NAC treatment
# CXCR4 = CXCR4 expression on LSK and SLAM LSK cells; format: in vivo, mice
# Protocol: FIG. 14A-14F. […] HSPC mobilization was assessed by measuring the numbers of LSK (upper left panel) and SLAM LSK (upper right panel) cells in peripheral blood. […] Representative images of TRAP staining from each group are shown (bottom panels). […] Shown are obtained from 6-8 weeks old animals. (C) Mice (B6) were injected as described in the legend to FIG. 11A. Bone marrow cells were collected from each treatment group and stained with indicated antibodies followed by flow cytometry analysis. The data are shown as mean values of three independent experiments with standard deviation. ** p<0.01. (D) Bone marrow mononuclear cells were isolated from B6 mice treated as above. To determine the protease activity, bone marrow supernatants harvested from indicated treatment groups were analyzed by zymogram analysis as described in the Methods section. The intensity of the zymogram bands (left panels) was analyzed utilizing densitometry and expressed as arbitrary units (right panels). Densitometric analyses are represented as the ratios to vehicle-treated group (CTL) set to 1. […] (E) Mice were treated as described in the legend to FIG. 13F. Expression levels of CXCR4 were determined in bone marrow (upper panel) and peripheral blood (lower panel) cells after gating on LSK or SLAM LSK subsets. Data are expressed as mean±SD from at least two independent experiments with four mice per group. […]
# [2] = system: bone marrow homing of peripheral blood cells
# LSK cells = experiment: Chemotaxis assay; format: cell-based, mouse; settings: CXCL12 120 ng/ml; UDP-Glc, UTP, UDP 10 μM; 6 hours
# [3] = system: white blood cell (WBC) and lineage-marker expressing cells (CD3, CD11b, and Gr-1); settings: G-CSFR deficient mice
# P2Y14 receptor [4] = biological target: T1, P2Y14 receptor; settings: Carter et al. 2009; cited from earlier work
# [5] = system: long-term repopulating HSPCs; experiment: Competitive repopulation and serial transplantation assays; format: in vivo, mice
# Protocol: (§2) The ratio of CD45.1/CD45.2 cells in recipient's peripheral blood was determined at various times after transplantation.
# as §2
# MMP-9 = experiment: Zymographic analysis of bone marrow supernatants; format: in vivo, mice
# Protocol: (§3) FIG. 14A-14F. […] HSPC mobilization was assessed by measuring the numbers of LSK (upper left panel) and SLAM LSK (upper right panel) cells in peripheral blood. […] Representative images of TRAP staining from each group are shown (bottom panels). […] Shown are obtained from 6-8 weeks old animals. (C) Mice (B6) were injected as described in the legend to FIG. 11A. Bone marrow cells were collected from each treatment group and stained with indicated antibodies followed by flow cytometry analysis. The data are shown as mean values of three independent experiments with standard deviation. ** p<0.01. (D) Bone marrow mononuclear cells were isolated from B6 mice treated as above. To determine the protease activity, bone marrow supernatants harvested from indicated treatment groups were analyzed by zymogram analysis as described in the Methods section. The intensity of the zymogram bands (left panels) was analyzed utilizing densitometry and expressed as arbitrary units (right panels). Densitometric analyses are represented as the ratios to vehicle-treated group (CTL) set to 1. […] (E) Mice were treated as described in the legend to FIG. 13F. Expression levels of CXCR4 were determined in bone marrow (upper panel) and peripheral blood (lower panel) cells after gating on LSK or SLAM LSK subsets. Data are expressed as mean±SD from at least two independent experiments with four mice per group. […] Recipient mice were conditioned (11 Gy) 24 hours before injection of cells.
# cathepsin G (CG) = experiment: Zymographic analysis of bone marrow supernatants; format: in vivo, mice
# Protocol: as §3
# neutrophil elastase (NE) = experiment: Zymographic analysis of bone marrow supernatants; format: in vivo, mice
# Protocol: as §3
# [6] = percentage of gated cells within the total number, UDP-Glc 200 mg/kg 6 days, G-CSF 300 μg/kg 4 days
molecule,measurement,setting,value
O=c1ccn([C@@H]2O[C@H](COP(=O)([O-])OP(=O)([O-])O[C@H]3O[C@H](CO)[C@@H](O)[C@H](O)[C@H]3O)[C@@H](O)[C@H]2O)c(=S)[nH]1.[Na+].[Na+] [MRS 2690],potency relative to UDP-Glc,P2Y14 receptor [1],approximately 7 fold
"CC(=O)N[C@@H](CS)C(=O)O [NAC, N-acetyl-L-cysteine]",effect of NAC on UDP-Glc-induced LSK / SLAM LSK cell mobilization,LSK and SLAM LSK cells; NAC 100 mg/kg/day s.c.,significantly abrogate the LSK and SLAM LSK cell mobilization induced by UDP-Glc; also recorded: significantly suppressed by NAC treatment
same,RANKL expression with NAC,RANKL,notably lowered
same,UDP-Glc-induced osteoclastogenesis with NAC,osteoclasts,significantly suppressed with NAC treatment
same,effect of NAC on UDP-Glc-induced CXCR4 expression,CXCR4,"able to abrogate the increase of CXCR4 expression induced by UDP-Glc, albeit not completely"
same,effect of NAC pretreatment on homing of UDP-Glc-mobilized cells,[2],inhibited by NAC pretreatment
"O=c1ccn([C@@H]2O[C@H](COP(=O)(O)OP(=O)(O)O)[C@@H](O)[C@H]2O)c(=O)[nH]1 [UDP, uridine diphosphate]","LSK cells in the peripheral circulation, UDP alone",LSK and SLAM LSK cells; UDP 200 mg/kg s.c.,did not elicit any appreciable change in the number of LSK cells
same,effect of UDP on UDP-Glc-induced LSK cell mobilization,LSK and SLAM LSK cells; UDP 200 mg/kg with UDP-Glc 200 mg/kg,antagonized UDP-Glc-induced LSK cell mobilization
same,chemotactic migration of mouse LSK cells,LSK cells,could chemoattract LSK cells in vitro in the presence or absence of CXCL12
same,"peripheral CD11b+, GR1+ and CD3+ cells in Csf3r−/− mice",[3],minimally affected
same,agonist activity at the human P2Y14 receptor,P2Y14 receptor [4],potent agonist of the human P2Y14 receptor
"O=c1ccn([C@@H]2O[C@H](COP(=O)(O)OP(=O)(O)OP(=O)(O)O)[C@@H](O)[C@H]2O)c(=O)[nH]1 [UTP, uridine-5′-triphosphate, reference compound]",chemotactic migration of mouse LSK cells,LSK cells,only a slight increase for mouse LSK cell migration with no statistical significance
B1,LSK cells in mobilized peripheral blood,LSK and SLAM LSK cells; [6],0.058%
same,SLAM LSK cells in mobilized peripheral blood,LSK and SLAM LSK cells; [6],0.0014%
same,"competitive repopulation, UDP-Glc- vs G-CSF-mobilized cells, early",[5]; one month following transplantation,considerable competitive advantage over UDP-Glc-mobilized cells
same,"competition in secondary recipients, bone marrow cells","[5]; serial transplantation, UDP-Glc (CD45.2) vs G-CSF (CD45.1)",completely out-competed by the cells derived from UDP-Glc mobilization
same,level of MMP-9,MMP-9,Elevated levels
same,level of CG,cathepsin G (CG),Elevated levels
same,level of NE,neutrophil elastase (NE),Elevated levels

# From patent US11173175B2, “Uridine diphosphate compounds as mobilizers of hematopoietic progenitor cells” (University of Pittsburgh—Of the Commonwealth System of …, priority 2012, dated 2021)
